This assay addresses T1, human PDE4D catalytic domain (Homo sapiens, UniProt Q08499).
T1 construct: UniProt no; Q08499 [S380-L740]
Put plainly: PDE4 Assay. The class given is biochemical. Conditions: human PDE4D catalytic domain (S380-L740), TR-FRET with FAM-cAMP; expressed as a range of IC50; read-out: PDE4 Potency Range. A digest of the protocol: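 Catalytic domain (S380-L740) was incubated with unlabelled cAMP plus FAM-cAMP and titrated compound, then stopped with Tb-donor nanoparticles binding AMP phospho groups. Generated AMP was read by time-resolved FRET; IC50 was reported as 50% inhibition of substrate cleavage relative to controls, expressed as nM ranges.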
(In general: Time-resolved FRET reads energy transfer from a long-lived donor to a nearby acceptor.)
T1 sequence (Q08499 380-740): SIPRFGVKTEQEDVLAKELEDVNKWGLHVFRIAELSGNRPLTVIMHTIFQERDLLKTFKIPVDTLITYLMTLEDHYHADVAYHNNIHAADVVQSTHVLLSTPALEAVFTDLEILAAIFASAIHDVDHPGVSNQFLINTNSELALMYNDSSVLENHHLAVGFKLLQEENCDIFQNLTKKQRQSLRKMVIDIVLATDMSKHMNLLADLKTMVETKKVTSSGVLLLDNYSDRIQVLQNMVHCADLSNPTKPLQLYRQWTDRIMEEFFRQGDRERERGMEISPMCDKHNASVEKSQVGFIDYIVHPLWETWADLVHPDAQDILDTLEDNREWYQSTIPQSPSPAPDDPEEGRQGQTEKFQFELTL
Turning to `CCc1nn(CCCOC(=O)c2cc(C)ns2)c2c1C(=O)NCC1(CCOCC1)C2` [Example 78, 3-(3-ethyl-4-oxo-spiro[6,8-dihydro-5H-pyrazolo[4,3-c]azepine-7,4′-tetrahydropyran]-1-yl)propyl 3-methylisothiazole-5-carboxylate], the IC50 lay in the range of 100 to 500 nM.

`CCc1nn(CCCOC(=O)c2cnsc2C)c2c1C(=O)NCC1(CCOCC1)C2` [Example 79, 3-(3-ethyl-4-oxo-spiro[6,8-dihydro-5H-pyrazolo[4,3-c]azepine-7,4′-tetrahydropyran]-1-yl)propyl 5-methylisothiazole-4-carboxylate]: the IC50 lay in the range of 100 to 500 nM.

For `CCc1nn(CCCOC(=O)c2ncsc2C)c2c1C(=O)NCC1(CCOCC1)C2` [Example 80, 3-(3-ethyl-4-oxo-spiro[6,8-dihydro-5H-pyrazolo[4,3-c]azepine-7,4′-tetrahydropyran]-1-yl)propyl 5-methylthiazole-4-carboxylate], the IC50 lay within 100 to 500 nM.

Turning to `CCc1nn(CCCOC(=O)c2scnc2C)c2c1C(=O)NCC1(CCOCC1)C2` [Example 81, 3-(3-ethyl-4-oxo-spiro[6,8-dihydro-5H-pyrazolo[4,3-c]azepine-7,4′-tetrahydropyran]-1-yl)propyl 4-methylthiazole-5-carboxylate], the IC50 fell in the range of 100 to 500 nM.

Consider `CCc1nn(CCCOC(=O)c2cnc(C)s2)c2c1C(=O)NCC1(CCOCC1)C2` [Example 82, 3-(3-ethyl-4-oxo-spiro[6,8-dihydro-5H-pyrazolo[4,3-c]azepine-7,4′-tetrahydropyran]-1-yl)propyl 2-methylthiazole-5-carboxylate], for which the IC50 lay in the range of 100 to 500 nM.

`CCc1nn(CCCOC(=O)c2snnc2C)c2c1C(=O)NCC1(CCOCC1)C2` [Example 83, 3-(3-ethyl-4-oxo-spiro[6,8-dihydro-5H-pyrazolo[4,3-c]azepine-7,4′-tetrahydropyran]-1-yl)propyl 4-methylthiadiazole-5-carboxylate]: the IC50 is > 500 nM.

Turning to `CCc1nn(CCCOC(=O)C2CCCSC2)c2c1C(=O)NCC1(CCOCC1)C2` (stereo not shown) [Example 84, 3-(3-ethyl-4-oxo-spiro[6,8-dihydro-5H-pyrazolo[4,3-c]azepine-7,4′-tetrahydropyran]-1-yl)propyl tetrahydrothiopyran-3-carboxylate], the IC50 fell in the range of 100 to 500 nM.

Consider `CCc1nn(CCCOC(=O)C2CCSCC2)c2c1C(=O)NCC1(CCOCC1)C2` [Example 85, 3-(3-ethyl-4-oxo-spiro[6,8-dihydro-5H-pyrazolo[4,3-c]azepine-7,4′-tetrahydropyran]-1-yl)propyl tetrahydrothiopyran-4-carboxylate], for which the IC50 was in the range of 100 to 500 nM.

`CCc1nn(CCCOC(=O)c2cc(C)nc(C)c2)c2c1C(=O)NCC1(CCOCC1)C2` [Example 86, 3-(3-ethyl-4-oxo-spiro[6,8-dihydro-5H-pyrazolo[4,3-c]azepine-7,4′-tetrahydropyran]-1-yl)propyl 2,6-dimethylpyridine-4-carboxylate]: the IC50 is 100 to 500 nM.

With `CCc1nn(CCCOC(=O)c2ccc(C)nc2C)c2c1C(=O)NCC1(CCOCC1)C2` [Example 87, 3-(3-ethyl-4-oxo-spiro[6,8-dihydro-5H-pyrazolo[4,3-c]azepine-7,4′-tetrahydropyran]-1-yl)propyl 2,6-dimethylpyridine-3-carboxylate], the IC50 was < 100 nM.

Regarding `CCc1nn(CCCOC(=O)c2cc(C)nnc2C)c2c1C(=O)NCC1(CCOCC1)C2` [Example 88, 3-(3-ethyl-4-oxo-spiro[6,8-dihydro-5H-pyrazolo[4,3-c]azepine-7,4′-tetrahydropyran]-1-yl)propyl 3,6-dimethylpyridazine-4-carboxylate], the IC50 is > 500 nM.

On to `CCc1nn(CCCOC(=O)c2coc(C3CC3)n2)c2c1C(=O)NCC1(CCOCC1)C2` [Example 89, 3-(3-ethyl-4-oxo-spiro[6,8-dihydro-5H-pyrazolo[4,3-c]azepine-7,4′-tetrahydropyran]-1-yl)propyl 2-cyclopropyloxazole-4-carboxylate], for which the IC50 lay in the range of 100 to 500 nM.

For the molecule `CCc1nn(CCCOC(=O)c2cc(C)nn2CC)c2c1C(=O)NCC1(CCOCC1)C2` [Example 90, 3-(3-ethyl-4-oxo-spiro[6,8-dihydro-5H-pyrazolo[4,3-c]azepine-7,4′-tetrahydropyran]-1-yl)propyl 2-ethyl-5-methyl-pyrazole-3-carboxylate], the IC50 is 100 to 500 nM.

As for `CCc1nn(CCCOC(=O)c2c(C)nn(C)c2C)c2c1C(=O)NCC1(CCOCC1)C2` [Example 91, 3-(3-ethyl-4-oxo-spiro[6,8-dihydro-5H-pyrazolo[4,3-c]azepine-7,4′-tetrahydropyran]-1-yl)propyl 1,3,5-trimethylpyrazole-4-carboxylate], the IC50 fell in the range of 100 to 500 nM.

With `CCc1noc(C)c1C(=O)OCCCn1nc(CC)c2c1CC1(CCOCC1)CNC2=O` [Example 92, 3-(3-ethyl-4-oxo-spiro[6,8-dihydro-5H-pyrazolo[4,3-c]azepine-7,4′-tetrahydropyran]-1-yl)propyl 3-ethyl-5-methyl-isoxazole-4-carboxylate], the IC50 was > 500 nM.

`CCc1nn(CCCOC(=O)C2CCN(C(C)=O)C2)c2c1C(=O)NCC1(CCOCC1)C2` (stereo not shown) [Example 93, 3-(3-ethyl-4-oxo-spiro[6,8-dihydro-5H-pyrazolo[4,3-c]azepine-7,4′-tetrahydropyran]-1-yl)propyl 1-acetylpyrrolidine-3-carboxylate]: the IC50 is > 500 nM.

On to `CCc1nn(CCCOC(=O)c2nc(C)c(C)s2)c2c1C(=O)NCC1(CCOCC1)C2` [Example 94, 3-(3-ethyl-4-oxo-spiro[6,8-dihydro-5H-pyrazolo[4,3-c]azepine-7,4′-tetrahydropyran]-1-yl)propyl 4,5-dimethylthiazole-2-carboxylate], for which the IC50 fell in the range of 100 to 500 nM.

Regarding `CCc1nn(CCCOC(=O)c2sc(C)nc2C)c2c1C(=O)NCC1(CCOCC1)C2` [Example 95, 3-(3-ethyl-4-oxo-spiro[6,8-dihydro-5H-pyrazolo[4,3-c]azepine-7,4′-tetrahydropyran]-1-yl)propyl 2,4-dimethylthiazole-5-carboxylate], the IC50 fell in the range of 100 to 500 nM.

Take `CCc1nn(CCCOC(=O)C2CCS(=O)(=O)C2)c2c1C(=O)NCC1(CCOCC1)C2` (stereo not shown) [Example 96, 3-(3-ethyl-4-oxo-spiro[6,8-dihydro-5H-pyrazolo[4,3-c]azepine-7,4′-tetrahydropyran]-1-yl)propyl 1,1-dioxothiolane-3-carboxylate]: the IC50 is > 500 nM.

On to `CCc1noc(CC)c1C(=O)OCCCn1nc(CC)c2c1CC1(CCOCC1)CNC2=O` [Example 97, 3-(3-ethyl-4-oxo-spiro[6,8-dihydro-5H-pyrazolo[4,3-c]azepine-7,4′-tetrahydropyran]-1-yl)propyl 3,5-diethylisoxazole-4-carboxylate], for which the IC50 fell in the range of 100 to 500 nM.

As for `CCc1nn(CCCOC(=O)C2CCCN(C(C)=O)C2)c2c1C(=O)NCC1(CCOCC1)C2` (stereo not shown) [Example 98, 3-(3-ethyl-4-oxo-spiro[6,8-dihydro-5H-pyrazolo[4,3-c]azepine-7,4′-tetrahydropyran]-1-yl)propyl 1-acetylpiperidine-3-carboxylate], the IC50 is > 500 nM.

Turning to `CCc1nn(CCCOC(=O)C2CCN(C(C)=O)CC2)c2c1C(=O)NCC1(CCOCC1)C2` [Example 99, 3-(3-ethyl-4-oxo-spiro[6,8-dihydro-5H-pyrazolo[4,3-c]azepine-7,4′-tetrahydropyran]-1-yl)propyl 1-acetylpiperidine-4-carboxylate], the IC50 was > 500 nM.

Source of the values: patent publication US11065257B2, “Substituted pyrazoloazepin-4-ones and their use as phosphodiesterase inhibitors” (LEO Pharma A/S, priority 2016, dated 2021).
